Reference: ChEMBL document CHEMBL1132443, “Antimalarial, antiproliferative, and antitumor activities of artemisinin-derived, chemically robust, trioxane dimers” (J Med Chem, 1999)

system: Plasmodium falciparum; test: In vitro antimalarial activity against chloroquine-sensitive Plasmodium falciparum NF54; assay type: functional, organism-based

SMILES	IC50
C[C@H]1[C@@H](C#Cc2cccc(C#C[C@H]3O[C@@H]4O[C@]5(C)CC[C@H]6[C@H](C)CC[C@@H]([C@H]3C)[C@@]46OO5)c2)O[C@@H]2O[C@]3(C)CC[C@H]4[C@H](C)CC[C@@H]1[C@@]24OO3	36 nM
C[C@H]1[C@@H](CC(=O)c2ccc(C(=O)C[C@H]3O[C@@H]4O[C@]5(C)CC[C@H]6[C@H](C)CC[C@@H]([C@H]3C)[C@@]46OO5)cc2)O[C@@H]2O[C@]3(C)CC[C@H]4[C@H](C)CC[C@@H]1[C@@]24OO3	1.9 nM
C[C@H]1[C@@H](CC(=O)c2cccc(C(=O)C[C@H]3O[C@@H]4C[C@]5(C)CC[C@H]6[C@H](C)CC[C@@H]([C@H]3C)[C@@]46OO5)c2)O[C@@H]2C[C@]3(C)CC[C@H]4[C@H](C)CC[C@@H]1[C@@]24OO3	1.9 nM
C[C@H]1[C@H](c2ccc([C@@H]3O[C@@H]4O[C@]5(C)CC[C@H]6[C@H](C)CC[C@@H]([C@H]3C)[C@@]46OO5)o2)O[C@@H]2O[C@]3(C)CC[C@H]4[C@H](C)CC[C@@H]1[C@@]24OO3	3.2 nM
C[C@H]1[C@@H](C#Cc2ccc(C#C[C@H]3O[C@@H]4O[C@]5(C)CC[C@H]6[C@H](C)CC[C@@H]([C@H]3C)[C@@]46OO5)cc2)O[C@@H]2O[C@]3(C)CC[C@H]4[C@H](C)CC[C@@H]1[C@@]24OO3	30 nM
COc1cc(OC)c([C@@H]2O[C@@H]3O[C@]4(C)CC[C@H]5[C@H](C)CC[C@@H]([C@H]2C)[C@@]35OO4)cc1[C@@H]1O[C@@H]2O[C@]3(C)CC[C@H]4[C@H](C)CC[C@@H]([C@H]1C)[C@@]24OO3	1.3 nM
C[C@@H]1CC[C@H]2[C@@H](C)C(=O)O[C@@H]3O[C@@]4(C)CC[C@@H]1[C@]32OO4 [ARTEMISININ]	9.7 nM
